21 compounds from patent US20180370927A1, “MICROBIOCIDAL OXADIAZOLE DERIVATIVES” (SYNGENTA PARTICIPATIONS AG, priority 2015, published 2018) can be followed below.

Experiment [1] relates to Glomerella lacenarium (Colletotrichum lacenarium). The experiment is described as follows: Glomerella lacenarium (Colletotrichum lacenarium) liquid culture / cucumber / preventative (anthracnose). The experiment is classed as cell-based. The following applies: 20 ppm in the applied formulation, liquid culture in PDB, 24° C., 3 to 4 days after application, read-out: disease control (inhibition of growth, photometric) compared to untreated control. As for the experimental part: Mycelia fragments or conidia suspensions of a fungus prepared either freshly from liquid cultures of the fungus or from cryogenic storage, are directly mixed into nutrient broth. DMSO solutions of the test compound (max. 10 mg/ml) are diluted with 0.025% Tween20 by a factor of 50 and 10 μL of this solution is pipetted into a microtiter plate (96-well format). The nutrient broth containing the fungal spores/mycelia fragments is then added to give an end concentration of the tested compound. The test plates are incubated in the dark at 24° C. and 96% relative humidity. The inhibition of fungal growth is determined photometrically after 2 to 7 days, depending on the pathosystem, and percent antifungal activity relative to the untreated check is calculated.
Example 4: Fungicidal Activity Against Glomerella lacenarium (Colletotrichum lacenarium) Liquid Culture/Cucumber/Preventative (Anthracnose)
Conidia of the fungus from cryogenic storage are directly mixed into nutrient broth (PDB—potato dextrose broth). After placing a (DMSO) solution of test compound into a microtiter plate (96-well format), the nutrient broth containing the fungal spores is added. The test plates are incubated at 24° C. and the inhibition of growth is measured photometrically 3 to 4 days after application.
The following compounds at 20 ppm in the applied formulation give at least 80% disease control in this test when compared to untreated control under the same conditions, which show extensive disease development.

Experiment [2] deals with Puccinia recondita f. Sp. Tritici. The experiment is described as follows: Puccinia recondita f. sp. tritici / wheat / leaf disc preventative (brown rust). The class given is in vivo. The following applies: foliar, 200 ppm in the applied formulation, wheat leaf segments, preventative, assessed 7 to 9 days after application, read-out: disease control compared to untreated control leaf disks. The protocol:
(§1) Leaf disks or leaf segments of various plant species are cut from plants grown in a greenhouse. The cut leaf disks or segments are placed in multiwell plates (24-well format) onto water agar. The leaf disks are sprayed with a test solution before (preventative) or after (curative) inoculation. Compounds to be tested are prepared as DMSO solutions (max. 10 mg/mL) which are diluted to the appropriate concentration with 0.025% Tween20 just before spraying. The inoculated leaf disks or segments are incubated under defined conditions (temperature, relative humidity, light, etc.) according to the respective test system. A single evaluation of disease level is carried out 3 to 14 days after inoculation, depending on the pathosystem. Percent disease control relative to the untreated check leaf disks or segments is then calculated.
Example 1: Fungicidal Activity Against Puccinia recondita f. Sp. Tritici/Wheat/Leaf Disc Preventative (Brown Rust)
Wheat leaf segments cv. Kanzler were placed on agar in multiwell plates (24-well format) and sprayed with the formulated test compound diluted in water. The leaf disks were inoculated with a spore suspension of the fungus 1 day after application. The inoculated leaf segments were incubated at 19° C. and 75% relative humidity (rh) under a light regime of 12 hours light/12 hours darkness in a climate cabinet and the activity of a compound was assessed as percent disease control compared to untreated when an appropriate level of disease damage appears in untreated check leaf segments (7 to 9 days after application).
(§2) The following compounds at 200 ppm in the applied formulation give at least 80% disease control in this test when compared to untreated control leaf disks under the same conditions, which show extensive disease development.

Experiment [3] has the same test system. Nature of the experiment: Puccinia recondita f. sp. tritici / wheat / leaf disc curative (brown rust). The class given is in vivo. The following applies: foliar, 200 ppm in the applied formulation, wheat leaf segments, curative (applied 1 day after inoculation), assessed 6 to 8 days after application, read-out: disease control compared to untreated control leaf disks. The protocol: as §1
Example 2: Fungicidal Activity Against Puccinia recondita f. Sp. Tritici/Wheat/Leaf Disc Curative (Brown Rust)
Wheat leaf segments cv. Kanzler are placed on agar in multiwell plates (24-well format). The leaf segments are then inoculated with a spore suspension of the fungus. Plates were stored in darkness at 19° C. and 75% relative humidity. The formulated test compound diluted in water was applied 1 day after inoculation. The leaf segments were incubated at 19° C. and 75% relative humidity under a light regime of 12 hours light/12 hours darkness in a climate cabinet and the activity of a compound was assessed as percent disease control compared to untreated when an appropriate level of disease damage appears in untreated check leaf segments (6 to 8 days after application).
as §2

`CCCC(=O)C(=O)N(CCOC)Cc1ccc(-c2noc(C(F)(F)F)n2)cc1` [Compound 1.9, N-(2-methoxyethyl)-2-oxo-N-[[4-[5-(trifluoromethyl)-1,2,4-oxadiazol-3-yl]phenyl]methyl]pentanamide]: the inhibition at 20 ppm in experiment [1] was at least 80%. Besides, the pest or weed control at 200 ppm in experiment [2] and in experiment [3] was at least 80% throughout.

As for `CC(=O)C(=O)N(Cc1ccc(-c2noc(C(F)(F)F)n2)cc1)CC1CCCO1` (centres unmarked) [Compound 1.14, 2-oxo-N-(tetrahydrofuran-2-ylmethyl)-N-[[4-[5-(trifluoromethyl)-1,2,4-oxadiazol-3-yl]phenyl]methyl]propanamide], in experiment [1], the inhibition at 20 ppm was at least 80%. Besides, the pest or weed control at 200 ppm in experiment [2] and in experiment [3] was at least 80% in each case.

Turning to `CCCC(=O)C(=O)N(Cc1ccc(-c2noc(C(F)(F)F)n2)cc1)Cc1ccco1` [Compound 1.15, N-(2-furylmethyl)-2-oxo-N-[[4-[5-(trifluoromethyl)-1,2,4-oxadiazol-3-yl]phenyl]methyl]pentanamide], in experiment [1], the inhibition at 20 ppm is at least 80%. Further, the pest or weed control at 200 ppm in experiment [2] and in experiment [3] was at least 80% throughout.

`CC(=O)C(=O)NCc1ccc(-c2noc(C(F)(F)F)n2)c(F)c1` [Compound 1.25, N-[[3-fluoro-4-[5-(trifluoromethyl)-1,2,4-oxadiazol-3-yl]phenyl]methyl]-2-oxo-propanamide]: the inhibition at 20 ppm in experiment [1] is at least 80%. Moreover, the pest or weed control at 200 ppm in experiment [2] and in experiment [3] was at least 80% in each case.

Turning to `CC(=O)C(=O)NCc1ccc(-c2noc(C(F)(F)F)n2)cc1F` [Compound 1.26, N-[[2-fluoro-4-[5-(trifluoromethyl)-1,2,4-oxadiazol-3-yl]phenyl]methyl]-2-oxo-propanamide], the inhibition at 20 ppm in experiment [1] was at least 80%. The pest or weed control at 200 ppm in experiment [2] and in experiment [3] was at least 80% each time.

`CC(=O)C(=O)NCc1ccc(-c2noc(C(F)(F)F)n2)c(F)c1F` [Compound 1.27, N-[[2,3-difluoro-4-[5-(trifluoromethyl)-1,2,4-oxadiazol-3-yl]phenyl]methyl]-2-oxo-propanamide]: the inhibition at 20 ppm in experiment [1] was at least 80%. Further, the pest or weed control at 200 ppm in experiment [2] and in experiment [3] was at least 80% throughout.

As to `CCC(=O)C(=O)NCc1ccc(-c2noc(C(F)(F)F)n2)cc1C` [Compound 1.85, N-[[2-methyl-4-[5-(trifluoromethyl)-1,2,4-oxadiazol-3-yl]phenyl]methyl]-2-oxo-butanamide], the inhibition at 20 ppm in experiment [1] is at least 80%. Also, the pest or weed control at 200 ppm in experiment [2] and in experiment [3] was at least 80% in each case.

As for `COC(=O)C(=O)N(Cc1ccc(-c2noc(C(F)(F)F)n2)cc1)OC` [Compound 3.2, methyl 2-[methoxy-[[4[5-(trifluoromethyl)-1,2,4-oxadiazol-3-yl]phenyl]methyl]amino]-2-oxo-acetate], in experiment [1], the inhibition at 20 ppm was at least 80%. Further, the pest or weed control at 200 ppm in experiment [2] and in experiment [3] was at least 80% each time.

Turning to `CON(Cc1ccc(-c2noc(C(F)(F)F)n2)cc1)C(=O)C(=O)O` [Compound 3.7, 2-[methoxy-[[4-[5-(trifluoromethyl)-1,2,4-oxadiazol-3-yl]phenyl]methyl]amino]-2-oxo-acetic acid], in experiment [1], the inhibition at 20 ppm is at least 80%. In experiment [3], the pest or weed control at 200 ppm is at least 80%.

Take `CN(C)C(=O)C(=O)Nc1ccc(-c2noc(C(F)(F)F)n2)cn1` [Compound 4.10, N′,N′-dimethyl-N-[5-[5-(trifluoromethyl)-1,2,4-oxadiazol-3-yl]-2-pyridyl] oxamide]: the pest or weed control at 200 ppm in experiment [2] and in experiment [3] was at least 80% each time.

In the case of `CC(C)(CS(C)(=O)=O)NC(=O)C(=O)Nc1ccc(-c2noc(C(F)(F)F)n2)cc1` [Compound 4.17], the pest or weed control at 200 ppm in experiment [2] and in experiment [3] was at least 80% in each case.

On to `NC(=O)C(=O)N(Cc1ccc(-c2noc(C(F)(F)F)n2)cc1)OCc1ccc(Cl)cc1` [Compound 4.34, N′-[(4-chlorophenyl)methoxy]-N′-[[4-[5-(trifluoromethyl)-1,2,4-oxadiazol-3-yl]phenyl]methyl] oxamide], for which the inhibition at 20 ppm in experiment [1] was at least 80%. For the same compound, the pest or weed control at 200 ppm in experiment [2] is at least 80%.

As for `CCON(C)C(=O)C(=O)NCc1ccc(-c2noc(C(F)(F)F)n2)cc1` [Compound 4.43, N′-ethoxy-N′-methyl-N-[[4-[5-(trifluoromethyl)-1,2,4-oxadiazol-3-yl]phenyl]methyl] oxamide], the inhibition at 20 ppm in experiment [1] is at least 80%. Besides, the pest or weed control at 200 ppm in experiment [2] is at least 80%.

Regarding `CCNC(=O)C(=O)NCc1ccc(-c2noc(C(F)(F)F)n2)cc1` [Compound 4.49, N-ethyl-N′-[[4-[5-(trifluoromethyl)-1,2,4-oxadiazol-3-yl]phenyl]methyl] oxamide], the inhibition at 20 ppm in experiment [1] is at least 80%. Further, in experiment [2], the pest or weed control at 200 ppm is at least 80%.

As for `C=CCNC(=O)C(=O)NCc1ccc(-c2noc(C(F)(F)F)n2)cc1` [Compound 4.57, N-allyl-N′-[[4-[5-(trifluoromethyl)-1,2,4-oxadiazol-3-yl]phenyl]methyl] oxamide], the inhibition at 20 ppm in experiment [1] is at least 80%. Moreover, in experiment [2], the pest or weed control at 200 ppm was at least 80%.

With `O=C(NCc1ccc(-c2noc(C(F)(F)F)n2)cc1)C(=O)NCc1ccco1` [Compound 4.60, N′-(2-furylmethyl)-N-[[4-[5-(trifluoromethyl)-1,2,4-oxadiazol-3-yl]phenyl]methyl] oxamide], the inhibition at 20 ppm in experiment [1] was at least 80%. In addition, the pest or weed control at 200 ppm in experiment [2] was at least 80%.

Take `CON(Cc1ccc(-c2noc(C(F)(F)F)n2)cc1)C(=O)C(=O)NC1CCCCC1` [Compound 4.63, N-cyclohexyl-N′-methoxy-N′-[[4-[5-(trifluoromethyl)-1,2,4-oxadiazol-3-yl]phenyl]methyl] oxamide]: in experiment [1], the inhibition at 20 ppm is at least 80%. Further, in experiment [2], the pest or weed control at 200 ppm was at least 80%.

For `CON(Cc1ccc(-c2noc(C(F)(F)F)n2)cc1)C(=O)C(=O)Nc1ccccc1` [Compound 4.70, N′-methoxy-N-phenyl-N′-[[4-[5-(trifluoromethyl)-1,2,4-oxadiazol-3-yl]phenyl]methyl] oxamide], the inhibition at 20 ppm in experiment [1] was at least 80%. Also, in experiment [2], the pest or weed control at 200 ppm was at least 80%.

In the case of `CON(Cc1ccc(-c2noc(C(F)(F)F)n2)cc1)C(=O)C(=O)NCc1ccccc1` [Compound 4.71, N-benzyl-N′-methoxy-N'-[[4-[5-(trifluoromethyl)-1,2,4-oxadiazol-3-yl]phenyl]methyl] oxamide], the inhibition at 20 ppm in experiment [1] is at least 80%. Moreover, in experiment [2], the pest or weed control at 200 ppm is at least 80%.

For `CON(Cc1ccc(-c2noc(C(F)(F)F)n2)cc1)C(=O)C(=O)NC1CCCC1` [Compound 4.79, N-cyclopentyl-N′-methoxy-N′-[[4-[5-(trifluoromethyl)-1,2,4-oxadiazol-3-yl]phenyl]methyl] oxamide], the inhibition at 20 ppm in experiment [1] is at least 80%. The pest or weed control at 200 ppm in experiment [2] was at least 80%.

`CON(Cc1ccc(-c2noc(C(F)(F)F)n2)cc1)C(=O)C(=O)NCc1ccco1` [Compound 4.81, N-(2-furylmethyl)-N′-methoxy-N′-[[4-[5-(trifluoromethyl)-1,2,4-oxadiazol-3-yl]phenyl]methyl] oxamide]: the inhibition at 20 ppm in experiment [1] is at least 80%. Moreover, the pest or weed control at 200 ppm in experiment [2] is at least 80%.

A word on the inhibition: it is the change of the read-out against control, counted positive when it falls.
